Test results published in patent US11236049B2, “Amorphous and crystalline forms of IDO inhibitors” (BRISTOL-MYERS SQUIBB COMPANY, priority 2017, dated 2022).
Several values for one entry are separate records, joined by “and”; a condition that tells them apart may be missing. Identical values can stand only once. Like-named read-outs stand apart in the source and are kept apart here.

Columns and labels:
[1] = format: physicochemical
Protocol: Stability Testing Chromatographic Conditions: VHPLC Parameters VHPLC System: Waters AcQuity BSM or […] system equipped with a Waters UV/Vis Detector Column: Ascentis Express C18, 150 mm×2.1 mm i.d., 2.7 um particle size. Detector Wavelength: 218 nm VHPLC detector time constrat: normal VHPLC sampling rate: 20 Hz […] Flow Rate: 0.5 mL/min Injection volume 1 uL Column temperature: 30° C. Run time: 14 minutes Sample temperature: 5° C. Mobile Phase A: water:acetonitrile:TFA (95:5:0.05) Mobile Phase B: water: acetonitrile:TFA (5:95:0.05) [table] […] The study consisted of one batch of drug substance packaged in double LDPE bags, placed in a 0.6 L HDPE paid with a lid and gasket.

[2] = Jet milling: milled physical properties; format: physicochemical
Description: Particle size reduction can be achieved by jet milling using a 0202 Jet o Mizer loop Mill. Particle collisions are enabled by nitrogen gas supplied at high pressure to the milling chamber via two grinding nozzles. The feed rate of the drug substance into the mill is controlled by a feeder that supplies drug substance into the feed hopper of the mill at a visually consistent feed rate. High pressure nitrogen gas is supplied through the venturi nozzle to inject drug substance from the mill feed hopper into the milling chamber, and this is referred to as the venture pressure. The grinding and venturi pressures are adjusted to the desired level before the start of milling, and both are kept at the same level unless product blow back from the feed hopper is observed. The venturi pressure is typically adjusted to 10 PSI above the grinding pressure. The micronized drug substance exits via the mill chamber outlet to be collected in the product collection unit consisting of a combined cyclone and porous fabric filter media assembly. Milling parameters may be adjusted based on sample analysis. Particle sizes that range between 12.7 μm and 24.0 μm (D90 by laser-light scattering) are achieved from the milling operation.

[3] = in vivo
[4] = for AUC (Mean) / Dissolution Rate (Mean): 150 mg in 250 mL (0.60 mg/mL API equivalent), 37° C.
Protocol: Microdissolution Microdissolution experiments were conducted in a pIon μDiss Profiler microdissolution instrument (pION μDiss Profiler) with a fiber optic UV monitoring system, as follows: Probes: 2.5 mm probes (5 mm path length) Volume: 15 ml Stirring: 150 rpm Temperature: 37° C. […] The target doses were 150 mg in 250 mL (0.60 mg/mL API equivalent) in FaSSIF (pH 6.5) and FeSSIF (pH 5).

[5] = pH solubility of Compound 1 MSA Salt Form 1; format: physicochemical
Protocol: Measurements were taken using an Orion ATI Model 370 pH meter. […] To each vial was added 5 mL of various aqueous acidic and basic solutions. Each vial was stoppered and vortexed and sonicated to mix well. The pH of each sample was recorded. […] After 24 hours of stirring, the pH of each sample (as a suspension) was recorded. Suspensions were filtered with 0.2 micron Acrodisc syringe filters. The clear filtrates were collected and vortexed to mix well pH of each filtrated was recorded. pH of suspension and filtrate were nearly identical. A 1.0 mL aliquot of each of the filtrates 25-fold using 50% acetonitrile/50% Milli-Q water, q.w. each flask to 25 mL. […] Samples were assayed using the following HPLC method: Column: […] Mobile phase Solvent A: Water w/0.05% TFA • Solvent B: Acetonitrile w/0.05% TFA […] Column temperature: Ambient RT Detector Wavelength: 250 nm […] Working Concentration: […] Added 20 mL of 100% acetonitrile to the vial. Stoppered, vortexed, and sonicated the vial. […] Transferred the suspension to a 250 mL glass volumetric flask, and washed out the glass vial with 4×20 mL 50% acetonitrile/50% Milli-Q water, transferring each wash into the volumetric flask. All solids dissolved. Q.S. the volumetric flask to 250 mL final volume using 50% acetonitrile/50% Milli Q water, shake to give standard solution at 101.5 mcg/mL.

[6] = No. 1 Long Term, 5° C., 1 month
[7] = No. 1 Long Term, 5° C., 3 months
[8] = No. 1 Long Term, 5° C., 6 months
[9] = No. 1 Long Term, 5° C., 12 months
[10] = No. 2 Long Term, 25° C./60% RH, 1 month
[11] = No. 2 Long Term, 25° C./60% RH, 3 months
[12] = No. 2 Long Term, 25° C./60% RH, 6 months
[13] = No. 2 Long Term, 25° C./60% RH, 12 months
[14] = No. 3 Accelerated, 40° C./75% RH, 1 month
[15] = No. 3 Accelerated, 40° C./75% RH, 2 weeks
[16] = No. 3 Accelerated, 40° C./75% RH, 3 months
[17] = No. 3 Accelerated, 40° C./75% RH, 6 months
[18] = No. 5 Stress, 40° C./75% RH exposed, 1 month
[19] = No. 5 Stress, 40° C./75% RH exposed, 2 weeks
[20] = No. 5 Stress, 40° C./75% RH exposed, 3 months
[21] = No. 5 Stress, 40° C./75% RH exposed, 6 months
[22] = No. 7 Stress, 25° C./HIL/UVA Exposed, 2 weeks
[23] = No. 7 Stress, 25° C./HIL/UVA Exposed, 4 days
[24] = No. 7 Stress, 25° C./HIL/UVA protected, 2 weeks
[25] = No. 7 Stress, 25° C./HIL/UVA protected, 4 days

CS(=O)(=O)O.C[C@@H](C(=O)Nc1ccc(Cl)cc1)[C@H]1CC[C@@H](c2ccnc3ccc(F)cc32)CC1 [Compound 1 MSA Salt Form 1, (R)-N-(4-chlorophenyl)-2-((1S,4S)-4-(6-fluoroquinolin-4-yl)cyclohexyl)propanamide methanesulfonate]
photostability study conclusion [1]: does not need to be protected from light | Assay “as is” [1, 6]: 81.9% | Assay “corrected” [1, 6]: 100.5% | Assay “as is” [1, 7]: 82.4% | Assay “corrected” [1, 7]: 101.1% | Assay “as is” [1, 8]: 81.2% | Assay “corrected” [1, 8]: 99.6% | Assay “as is” [1, 9]: 81.7% | Assay “corrected” [1, 9]: 100.5% | Assay “as is” [1, 10]: 82.1% | Assay “corrected” [1, 10]: 100.8% | Assay “as is” [1, 11]: 81.7% | Assay “corrected” [1, 11]: 100.4% | Assay “as is” [1, 12]: 81.2% | Assay “corrected” [1, 12]: 99.7% | Assay “as is” [1, 13]: 81.1% | Assay “corrected” [1, 13]: 99.8% | Assay “as is” [1, 14]: 82.3% | Assay “corrected” [1, 14]: 101.0% | Assay “as is” [1, 15]: 80.7% | Assay “corrected” [1, 15]: 99.1% | Assay “as is” [1, 16]: 81.5% | Assay “corrected” [1, 16]: 100.1% | Assay “as is” [1, 17]: 81.8% | Assay “corrected” [1, 17]: 100.4% | Assay “as is” ([1]; No. 4 Stress, −20° C., 1 month): 82.4% | Assay “corrected” ([1]; No. 4 Stress, −20° C., 1 month): 101.1% | Assay “as is” [1, 18]: 81.6% | Assay “corrected” [1, 18]: 100.3% | Assay “as is” [1, 19]: 80.9% | Assay “corrected” [1, 19]: 99.3% | Assay “as is” [1, 20]: 81.4% | Assay “corrected” [1, 20]: 99.9% | Assay “as is” [1, 21]: 80.3% | Assay “corrected” [1, 21]: 98.6% | Assay “as is” ([1]; No. 6 Stress, 50° C., 1 month): 82.0% | Assay “corrected” ([1]; No. 6 Stress, 50° C., 1 month): 100.7% | Assay “as is” ([1]; No. 6 Stress, 50° C., 2 weeks): 80.8% | Assay “corrected” ([1]; No. 6 Stress, 50° C., 2 weeks): 99.2% | Assay “as is” ([1]; No. 6 Stress, 50° C., 3 months): 82.2% | Assay “corrected” ([1]; No. 6 Stress, 50° C., 3 months): 100.9% | Assay “as is” [1, 22]: 78.7% | Assay “corrected” [1, 22]: 96.8% | Assay “as is” [1, 23]: 80.8% | Assay “corrected” [1, 23]: 99.2% | Assay “as is” [1, 24]: 80.4% | Assay “corrected” [1, 24]: 98.7% | Assay “as is” [1, 25]: 81.1% | Assay “corrected” [1, 25]: 99.5% | storage time remained stable ([1]; accelerated condition of 40° C./75% RH): ≥ 6 months | changes in XRD pattern ([1]; after any of the study numbers): No changes | change in total impurities on light exposure ([1]; approximately 3.5 times the minimum ICH exposure): slight increase | Color and appearance (white or off-white powder or powder with lumps) ([1]; during the studies): maintained | 4-chloroaniline (impurity) ([1]; initial): 0.09% | enantiomeric impurity of Compound 1 ([1]; initial): < 0.05% | total impurities ([1]; initial): 0.57% | water content ([1]; initial): < 0.1 % w/w | Assay “as is” ([1]; initial (average of 2 results)): 79.0% and 79.0^1% | Assay “corrected” ([1]; initial (average of 2 results)): 97.0% and 97.0^1% | storage time remained stable ([1]; long-term conditions of 5° C. and 25° C./60% relative humidity (RH)): at least 12 months | changes on light exposure ([1]; minimum ICH Q1B exposure): Essentially no changes | storage time remained stable ([1]; stress condition of 50° C.): ≥ 3 months | total impurities ([1]; study number 3): 0.48% | total impurities ([1]; study number 6): 0.50% | changes in assay “as is” or “corrected” from initial ([1]; study numbers 1, 2, 3, and 5): Essentially no changes | changes in enantiomeric impurity ([1]; study numbers 1 and 2): No changes | changes in water content ([1]; study numbers 1 and 2): Essentially no changes | 4-chloroaniline (impurity) ([1]; study numbers 3 and 6 (both conditions)): < 0.05% | changes in total impurities from initial ([1]; study numbers 4, 1, 2, and 3): Essentially no changes | Bulk density ([2]; for sample with D90 of 22.3 μm): 0.193 g/mL | D50 ([2]; range from 0202 Jet Mill): 6.2-9.8 μm | Surface area ([2]; range from 0202 Jet Mill): 2.08-3.63 m^2/g | D90 ([2]; range from 0202 Jet Mill, laser-light scattering): 12.7-24.0 μm | oral bioavailability [3]: increased oral bioavailability | rate and extent of dissolution compared to an amorphous form or HCl salts (amorphous and crystalline) ([4]; Example 14, FIG. 7, both FeSSiF and FaSSiF, simulated 150 mg human dose): faster rate and extent of dissolution | rate and extent of dissolution compared to Compound 1 free base (amorphous) ([4]; Example 14, FIG. 8, FaSSIF and FeSSIF at 0.2 mg/mL): faster rate and extent of dissolution | rate of dissolution ([4]; Example 16, FeSSIF): 38 µg/mL/min | AUC (Mean) ([4]; FaSSIF (pH 6.5)): 14988.073 µg·min/mL | Dissolution Rate (Mean) ([4]; FaSSIF (pH 6.5)): 2.460 µg/mL/min | AUC (Mean) ([4]; FeSSIF (pH 5)): 46410.396 µg·min/mL | Dissolution Rate (Mean) ([4]; FeSSIF (pH 5)): 38.850 µg/mL/min | Peak Solubility (Mean) ([4]; pH 5): 271.564 µg/mL | Peak Solubility (Mean) ([4]; pH 6.5): 100.877 µg/mL | Solubility ([5]; pH 0.49): 24 µg/mL | Solubility ([5]; pH 1.01): 73 µg/mL | Solubility ([5]; pH 2.46): 147 µg/mL | Solubility ([5]; pH 2.7): 85 µg/mL | Solubility ([5]; pH 3.14): 18 µg/mL | Solubility ([5]; pH 3.61): 3 µg/mL | Solubility ([5]; pH 4.53): 1 µg/mL | Solubility ([5]; pH 6.82): 1 µg/mL | Solubility ([5]; pH 7): 96 µg/mL | Solubility ([5]; pH 9.68): 2 µg/mL
